Results on four compounds are retold here after US6500858B2, “Taxoid anti-tumor agents and pharmaceutical compositions thereof” (The Research Foundation of the state University of New York, priority 1994, dated 2002).

Where “and” joins values, the source holds several entries; their conditions need not be identical. Identical values can stand only once. Like-named read-outs stand apart in the source and are kept apart here. Some results are limits rather than exact numbers.

Data set [1] in a line: cytotoxicity of C-3′ modified docetaxel analog (cell line not clearly stated). The format is cell-based. Conditions: compared with isobutenyl group of RAH-1.
Data set [2] deals with human colon carcinoma cells HCT-116. Conditions: cited from earlier work.
In data set [3] the test system is A549 (non-small cell lung carcinoma). Briefly: tumor cell growth inhibition (SRB, 72 h drug exposure). Conditions: 72 h drug exposure; read-out: A549 (NSCLC) IC50. The class given is cell-based, human.
The test system of data set [4] is MCF7 (mammary carcinoma). The description is as above. The format is cell-based, human.
Data set [5] concerns HT-29 (colon carcinoma). The description is as above. The format is cell-based, human. Conditions: 72 h drug exposure.
Data set [6] has as its system A121 (ovarian carcinoma). The description is as above. The format is cell-based, human. Conditions: 72 h drug exposure.
In data set [7] the test system is MCF7-R (mammary carcinoma cells 180-fold resistant to adriamycin). The data set is described as above. The class given is cell-based, human.
The subject of data set [8] is multi-drug resistant phenotype human colon carcinoma cells HCT-116/VM. Conditions: cited from earlier work.
Data set [9] has as its system LCC6-WT: human breast carcinoma. Briefly: cytotoxicity assay of second generation taxoids. The class given is cell-based. Conditions: Homo sapiens, 72 h, read-out: LCC6-WT IC50. As for the experimental part:
A cytotoxicity assay of these new second generation taxoids was performed on human breast cancer cell lines, LCC6-WT and LCC-MDR, and selected taxoids were also assayed for their potency against MCF7 and MCF7-R (Skehan, P., et al., J. Nat. Cancer Inst. 1990, 82, 1107-1112).

The test system of data set [10] is A2780. In words: growth inhibition by cell counts, 72 h. The format is cell-based, human. Conditions: read-out: A2780 IC50. As for the experimental part:
(§1) Cells were plated in 6-well flat bottom plates (Falcon, Lincoln Park, N.J.) at a concentration of 10^5 cells ml in complete medium. After 24 h, the medium was replaced with media containing the test substances. Control cells were treated with vehicle alone. Cells were then washed twice and cultures maintained up to 72 h in complete medium (without removing the test substances). At this time point quadruplicate counts of triplicate cultures were performed. To calculate the growth inhibition effect, three independent experiments were performed for each test substance/cell line. The IC50 values were then calculated by fitting the concentration-effect curve data obtained in the three experiments with the sigmoid-Emax model using nonlinear regression, weighted by the reciprocal of the square of the predicted effect according to the method of Motulsky, H. J. and Ransnas, L. A., FASEB J. 1:365-74 (1987).

Data set [11] relates to NCI-H23. In words: growth inhibition by cell counts, 72 h. The format is cell-based, human. Conditions: read-out: NCI-H23 IC50. The method, then: as §1
Data set [12] concerns MCF-7 wt. In words: growth inhibition by cell counts, 72 h. Conditions: read-out: MCF-7 wt IC50. The format is cell-based, human. As for the experimental part: as §1
The subject of data set [13] is PC-3. In words: growth inhibition by cell counts, 72 h. The format is cell-based, human. As for the experimental part: as §1
For data set [14], the system named is MCF-7 ADRr. In words: growth inhibition by cell counts, 72 h. The format is cell-based, human. Conditions: read-out: MCF-7 ADRr IC50. As for the experimental part:
as §1

Data set [15] concerns DU-145. In words: growth inhibition by cell counts, 72 h. Conditions: read-out: DU-145 IC50. The format is cell-based, human. The method, then:
as §1

Data set [16] deals with WiDr. Briefly: growth inhibition by cell counts, 72 h. The format is cell-based, human. Conditions: read-out: WiDr IC50. The method, then: as §1
In data set [17] the test system is LCC6-MDR: MDR1 transduced line. In words: cytotoxicity assay of second generation taxoids. The format is cell-based, human. Conditions: Homo sapiens, LCC6MDR, 72 h, read-out: LCC6-MDR IC50.
In data set [18] the test system is docetaxel-resistant melanoma, B16/TXT. In words: intravenous administration to B16/TXT melanoma-bearing mice. The format is in vivo, B6D2F1 female mice. The arrangement: key to Responses (activity rating): A = active; HA = highly active. Conditions: for T/C / log10 cell kill: days 3, 5, 7. The method, then:
(§2) The efficacy of the test compounds on solid tumors in vivo was determined experimentally according to the following general experimental protocol:
(§3) The mice subjected to the experiment were subcutaneously grafted bilaterally with 30 to 60 mg of a tumor fragment on day zero. Mice bearing tumors were mixed before being subjected to the various treatments and controls. In the case of treatment of advanced tumors, tumors were allowed to develop to the desired size, and mice having insufficiently developed tumors were eliminated. The selected mice were distributed at random to undergo the treatments and controls. Mice not bearing tumors may also be subjected to the same treatments as the tumor-bearing mice in order to be able to dissociate the toxic effect from the specific effect on the tumor. Chemotherapy generally began from 3 to 22 days after grafting, depending on the type of tumor, and the mice were observed every day. The different mice groups were weighed 3 or 4 times a week until the maximum weight loss was attained (nadir), and the groups were then weighed at least once a week until the end of the trial.
(§4) The tumors were measured 2 or 3 times a week until the tumor reached approximately 2 grams, or until the animal died, if this occurred before the tumor reached 2 grams. The mice were autopsied when sacrificed.
(§5) The antitumor activity was determined in accordance with different parameters recorded such as dose (mg/kg), mode of administration, time of administration, cytotoxicity, toxicity and log10 cell kill.
SB-T-1213, SB-T-121303, SB-T-121304 and SB-T-1250 were evaluated in B6D2F1 female mice bearing the docetaxel-resistant melanoma, B16/TXT. The general experimental protocol was as described above. The compounds evaluated were administered intravenously on an intermittent schedule on days 3, 5, and 7 post tumor implantation.

The test system of data set [19] is mammary adenocarcinoma MA17/A. Briefly: oral administration to MA17/A tumor-bearing mice. The format is in vivo, C3H/HeN female mice. The arrangement: key to Responses (activity rating): A = active; HA = highly active. As for the experimental part: as §2, §3, §4, §5
SB-T-1213 was evaluated in C3H/HeN female mice bearing mammary adenocarcinoma MA17/A with an intermittent schedule of oral administrations. The compound for administration was formulated in 10% ethanol, 10% polysorbate 80, and 80% glucose/5% water.
SB-T-1213 was administered 3 times a day on 3 and 7 days post tumor implantation. The two highest dosages of 36.4 and 22.6 mg/kg/adm. were toxic, producing 5/5 drug related deaths (DD) and 20% body weight loss, respectively. However, the highest nontoxic dose of 14 mg/kg/adm. (total dose of 84 mg/kg), produced 8.4% body weight loss at nadir, 4 days post therapy. […] One of five mice was a tumor-free survivor (TFS) on day 94 post tumor implantation with this dosage. Two lower dosages of 8.7 and 5.4 mg/kg/adm. also maintained activity, having a log10 cell kill of greater than 3 and of 2.5, respectively.

The subject of data set [20] is B16 melanoma. Briefly: intravenous administration to mice bearing B16 melanoma. Also noted: key to Responses (activity rating): A = active; HA = highly active. The format is in vivo, B6D2F1 female mice. The method, then:
as §2, §3, §4, §5
SB-T-1213, SB-T-121303, SB-T-121304 and SB-T-1250 were evaluated in B6D2F1 female mice bearing B16 melanoma. The general experimental protocol was as described above. The compounds evaluated were administered intravenously (iv) on an intermittent schedule on days 3, 5, and 7 post tumor implantation. With the exception of SB-T-1250, solutions of the compounds for administration were prepared in 5% ethanol, 5% polysorbate 80, and 90% glucose 5% water.

Regarding `CC(=O)OC12COC1CC(O)C1(C)C(=O)C(O)C3=C(C)C(OC(=O)C(O)C(C=Cc4ccccc4)NC(=O)OC(C)(C)C)CC(O)(C(OC(=O)c4ccccc4)C21)C3(C)C` (centres unmarked) [3′-dephenyl-3′-(2-phenylethenyl)docetaxel], the decrease in cytotoxicity in [1] is above 20 times.

For `CC(=O)OC1C(=O)C2(C)C(O)CC3OCC3(OC(C)=O)C2C(OC(=O)c2ccccc2)C2(O)CC(OC(=O)C(O)C(C=C(C)C)NC(=O)c3ccccc3)C(C)=C1C2(C)C` (centres unmarked) [RAH-1, 3′-dephenyl-3′-isobutenylpaclitaxel], the “times better activity than docetaxel” value is on record as 7 times in data set [2] and 9 times in data set [8]. Besides, the “times better activity than paclitaxel” value in data set [2] is on record as 4 times; in data set [8], “about 20 times”. Further, the IC50 (usually the point on the concentration scale where inhibition reaches its midpoint) in [3] is 0.45 nM; in [4] (72 h drug exposure, Table 1, read-out: MCF7 (breast) IC50), 0.54 nM; in data set [5] it was 0.96 nM; in data set [6], 1.4 nM; in data set [7] (72 h drug exposure, Table 1), 113 nM. Besides, in data set [7] (one order of magnitude weaker than Taxoid Ia), the “activity against MCF7-R in words” value is reported as “only marginal activity”.

Consider `CC(=O)O[C@H]1C(=O)[C@@]2(C)[C@H]([C@H](OC(=O)c3ccccc3)[C@]3(O)C[C@H](OC(=O)[C@H](O)[C@@H](NC(=O)c4ccccc4)c4ccccc4)C(C)=C1C3(C)C)[C@]1(OC(C)=O)CO[C@@H]1C[C@@H]2O` [Paclitaxel, paclitaxel, reference compound], for which the IC50 in data set [9] turned out to be 3.1 nM; in [4] (Homo sapiens, MCF7, 72 h drug exposure, Table 1, read-out: MCF7 (breast) IC50), 1.7 nM; in [4] (Homo sapiens, MCF7, 72 h drug exposure, Table 3, read-out: MCF7 IC50) it was 1.7 nM; in [5] (Homo sapiens, HT-29) it was 3.2 nM; in [6] (Homo sapiens, A121) it was 6.1 nM; in data set [7] (Homo sapiens, MCF7R, 72 h drug exposure, Table 1), 300 nM. Also, the IC50 was 5.4 nM in data set [10] (Homo sapiens, A2780, 72 h); 4.1 nM in data set [11] (Homo sapiens, NCI-H23, 72 h); 5.8 nM in data set [12] (Homo sapiens, MCF7, 72 h); 3.4 nM in [13] (Homo sapiens, PC-3, 72 h); 3300 nM in [14] (Homo sapiens, MCF7, 72 h); 1.5 nM in data set [15] (Homo sapiens, DU-145, 72 h). The 50% inhibitory concentration (IC50) in data set [16] (Homo sapiens, WiDr) worked out at 3.8 nM; in data set [17], 346 nM.

With `CCC(=O)OC1C(=O)C2(C)C(O)CC3OCC3(OC(C)=O)C2C(OC(=O)c2ccccc2)C2(O)CC(OC(=O)C(O)C(C=C(C)C)NC(=O)OC(C)(C)C)C(C)=C1C2(C)C` (centres unmarked) [Taxoid Ib, 3′-Dephenyl-3′-(2-methyl-1-propenyl)-10-propanoyldocetaxel], the T/C (in general, the ratio of treated to control) turned out to be 74% in [18] (4.5 mg/kg/adm.); 11% in data set [18] (19 mg/kg/adm.); 0% in [19] (14.0 mg/kg/adm., days 3, 7); 0% in data set [20] (11.8 mg/kg/adm., days 3, 5, 7). The “Responses (activity rating)” value was “A” in data set [18] (7.3 mg/kg/adm.); “A” in [18] (11.8 mg/kg/adm.); “A” in data set [18] (19 mg/kg/adm.); “A” in [19] (8.7 mg/kg/adm.); “HA” in data set [19] (14.0 mg/kg/adm.); “A” in [20] (4.5 mg/kg/adm.). The figures for the “Responses (activity rating)” value in data set [20] (7.3 mg/kg/adm.) and in data set [20] (11.8 mg/kg/adm.) were “A” and “HA”, respectively. In addition, the log10 cell kill in data set [18] (7.3 mg/kg/adm.) worked out at 1; in data set [18] (11.8 mg/kg/adm.), 1; in data set [18] (19 mg/kg/adm.), 1.6; in data set [20] (4.5 mg/kg/adm., days 3, 5, 7), 1.6; in data set [20] (7.3 mg/kg/adm., days 3, 5, 7), 1.8; in data set [20] (11.8 mg/kg/adm., days 3, 5, 7), 3. The “% body weight loss at nadir” value in [18] (19 mg/kg/adm., days 3, 5, 7, listed as SB-T-1213, 19 mg/kg) was 17.1% and 17.1 (4) %; in [19] (14 mg/kg/adm., days 3, 7, total 84 mg/kg, listed as SB-T-1213) it was 8.4% and 8.4 (4) %; in data set [20] (11.8 mg/kg/adm., days 3, 5, 7, listed as SB-T-1213, 11.8 mg/kg), 15.3% and 15.3 (3) %. For the same compound, the “tumor-free survivors (TFS)” value in data set [19] (8.7 mg/kg/adm.) was 1/5; in data set [19] (14 mg/kg/adm., day 94 post tumor implantation, listed as SB-T-1213, 14 mg/kg), “One of five and 1/5”. Also, in data set [19] (22.6 mg/kg/adm., 3 times a day on days 3 and 7), the body weight loss turned out to be 20%. The “drug related deaths (DD)” value in data set [19] (36.4 mg/kg/adm., 3 times a day on days 3 and 7) is 5/5; in [20] (19 mg/kg/adm., days 3, 5, 7) it was “⅕”. The highest nontoxic dose came to 14 mg/kg/adm in data set [19] (3 times a day on days 3 and 7); 11.8 mg/kg/adm in data set [20] (days 3, 5, 7). Also, the half-inhibitory concentration (IC50) in data set [4] (Table 2, read-out: MCF7 IC50) was found to be 0.21 nM; in data set [7] (Table 2) it was 2.16 nM; in [10] (72 h) it was 1.77 nM; in data set [11] (72 h), 0.7 nM; in data set [12] (72 h) it was 0.9 nM; in data set [13] (72 h) it was 0.3 nM. For the same compound, the figures for the IC50 in data set [14] (72 h), in [15] (72 h) and in data set [16] were 8 nM, 0.3 nM and 0.4 nM, respectively.
